Where two headings read alike, the source gives them in different places.
Experiments:
[1] = tested on: HEK293 and HepG2 cell lines
NRF2 = conditions: cited from earlier work; for Nrf2 TF activity (in words): Tox21 assay

CC(C)(c1ccc(O)cc1)c1ccc(O)cc1 [Bisphenol A]
cytotoxicity kinetics activity profile in the four real-time cytotoxicity assays ([1]; human): active only in HEK293[glo]
Nrf2 TF activity (in words) (NRF2): increased Nrf2 TF activity

CC/C(=C(/CC)c1ccc(O)cc1)c1ccc(O)cc1 [Diethylstilbestrol, reference compound]
cytotoxicity kinetics activity profile in the four real-time cytotoxicity assays ([1]; human): active only in HEK293[glo]
Nrf2 TF activity (in words) (NRF2): increased Nrf2 TF activity

CC(C)C(=O)Nc1ccc([N+](=O)[O-])c(C(F)(F)F)c1 [Flutamide, reference compound]
cytotoxicity kinetics activity profile in the four real-time cytotoxicity assays ([1]; human): active only in HEK293[glo]
Nrf2 TF activity (in words) (NRF2): increased Nrf2 TF activity

CC(C)(O)C(=O)Nc1ccc([N+](=O)[O-])c(C(F)(F)F)c1 [Hydroxyflutamide, reference compound]
cytotoxicity kinetics activity profile in the four real-time cytotoxicity assays ([1]; human): active only in HEK293[glo]
Nrf2 TF activity (in words) (NRF2): increased Nrf2 TF activity

O=C(OCCN1CCOCC1)c1cccnc1Nc1cccc(C(F)(F)F)c1 [Morniflumate, reference compound]
increase NRF2 TF activity, POD potency (NRF2): 4.54 log10(M)*-1

CC12CC1(C)C(=O)N(c1cc(Cl)cc(Cl)c1)C2=O (stereo not drawn) [procymidone, reference compound]
cytotoxicity kinetics activity profile in the four real-time cytotoxicity assays [1]: no activity in all four real-time cytotoxicity assays
Nrf2 TF activity (in words) (NRF2): Weak Nrf2 activity

Phenol, isopropylated, phosphate (3:1)
increase NRF2 TF activity, POD potency (NRF2): 4.21 log10(M)*-1

Reference: PMC5439695 (PLoS ONE, 2017)
